# pIC50: −log10 of the molar value. Entries after “also recorded” stand apart in the source; their conditions may differ.
# Assays:
# [1] = test system: Sapap3 knock-out mice; assay: Novelty Phobia Test in Sapap3 knock-out mice; type: in vivo, mouse; conditions: for novelty phobia (number of touch bouts), dose dependence: single i.p. administration
# Protocol: (§1) Animals. Shank3 knockout mice and Sapap3 knockout mice were purchased from Duke University. The animals were raised in a SPF environment according to AALAC guidelines. The breeding conditions and genotyping method were the same as described in J. M. Welch et al., Nature 2007; 448(7156):894-900, and in J. Peca et al., Nature 2011;472(7344):437-442. Homozygous knockout mice of 4 to 8 weeks of age were used in behavioral assays.
# The test compounds were dissolved in a small volume of DMSO and diluted saline and administered intraperitoneally (i.p.) to 4 to 8 week old mice. […]
# The behavioral testing apparatus was a rectangular black Plexiglas box, with no top or bottom (50 cm long, 26 cm wide and 15 cm tall). The chambers of the testing apparatus were cleaned and fresh paper chip bedding was added between tests. Behavioral tests were conducted between 10:00 am and 1:00 pm in dim light. Mice were brought to the experiment room in their home cages and administered intraperitoneally with drugs or vehicle in a volume of 10 ml/kg. […] After this habituation period, a novel object (e.g., a toy ball of 3 cm in diameter with spikes) was introduced to the center of the chamber for 5 min. For the entire 15 min that the mouse spent in the chamber, video was recorded and analyzed with AnyMaze software (purchased from Stoelting Co.). The total distance traveled during the entire 15 min and the bouts that the mice touched the novel object during the last 5 min were measured. Statistical significance between two groups was determined by t test. In all statistical measures, the criterion for significance was set at p<0.05.
# [2] = target: T1, human NR1/NR2B (Homo sapiens, UniProt Q05586+Q13224); assay: NR2B antagonist activity, Fluo-4 calcium influx assay in HEK293 cells; type: cell-based; conditions: glutamate 100 μM and glycine 50 μM, Fluo-4 fluorescence, read-out: hNR2B IC50
# T1 construct: expressed in transfected cells
# Protocol: (§2) HEK293 cell lines stably expressing cloned human NR1/NR2B and NR1/NR2A, respectively, were established according to standard previously described methods (Hansen et al., Comb. Chem High Throughput Screen. 11:304, 2008). Activation of the NR2A or NR2B subtype of NMDA receptor with glutamate as an agonist and glycine co-agonist on these cells results in calcium influx, which can be monitored with fluorescent indicator Fluo-4.
# (§3) For experiments, the cells were seeded onto poly-D-lysine-coated 96-well black plates with clear bottom (Corning) at a density of ˜50,000 cells/well. After overnight culture, the growth medium was removed from the wells and the cells were incubated at 37° C. for 60 min in Hanks buffer containing 4 μM fluo-4-AM (Invitrogen) and 0.1% bovine serum albumin (BSA). After dye-loading, the cells were washed three times with Hanks buffer and incubated for 10 min at room temperature with various concentrations of test compounds prepared in Hanks buffer with 0.1% BSA. The cell plates were placed onto FDSS μCell fluorescence reader (Hamamatsu). After 20 sec reading of background fluorescence, agonist glutamate at final 100 μM and co-agonist glycine at final 50 μM were added to the cells to activate the receptor, and the resulting fluorescence changes were recorded and quantified.
# [3] = target: T2, human NR1/NR2A (Homo sapiens, UniProt Q05586+Q12879); assay: NR2A antagonist activity, Fluo-4 calcium influx assay in HEK293 cells; type: cell-based; conditions: glutamate 100 μM and glycine 50 μM, Fluo-4 fluorescence, read-out: hNR2A IC50
# T2 construct: expressed in transfected cells
# Description: as §2, with “Fluo-4. A cell based assay has been implemented to evaluate the effect of a compound on NR2A and NR2B receptors by measuring the fluorescent changes (Hansen et al., Comb. Chem High Throughput Screen. 11:304, 2008).” for “Fluo-4.”
# as §3, with “HEK293 cells stably expressing NR2A or NR2B receptors were cultured at 37° C. in a humidified CO2 incubator in DMEM supplemented with 10% fetal bovine serum (FBS) (Hyclone), 10 μM MK801 (Sigma-Aldrich) and 50 μM AP-5 (Tocris). For” for “For”, “quantified. Based on the changes in fluorescence intensity, the pharmacological effect of test compounds were analyzed and the IC50 values derived from a non-linear least squares fitting of the concentration-dependent response to a standard logistic equation using Prism (Graphpad, Inc):” for “quantified.”
# Amplitude=Max Amplitude/(1+(IC50/[antagonist])°).
# [4] = target: T3, human NR1/NR2A (Homo sapiens, UniProt Q12879); conditions: from L. Mony et al., Br. J. Pharmacol. 2009; read-out: hNR2A IC50; cited from earlier work
# T3 construct: expressed in transfected cells
# [5] = test system: Shank3 knock-out mice; assay: Novelty Phobia Test in Shank3 knock-out mice; type: in vivo, mouse; conditions: for novelty phobia (number of touch bouts): vs vehicle, p<0.05
# Protocol: as §1
# The test compounds were dissolved in a small volume of DMSO and diluted saline and administered intraperitoneally (i.p.) to 4 to 8 week old mice. About 30-60 minutes after dosing, the mice were subjected to a behavioral test as described below.
# The behavioral testing apparatus was a rectangular black Plexiglas box, with no top or bottom (50 cm long, 26 cm wide and 15 cm tall). The chambers of the testing apparatus were cleaned and fresh paper chip bedding was added between tests. Behavioral tests were conducted between 10:00 am and 1:00 pm in dim light. Mice were brought to the experiment room in their home cages and administered intraperitoneally with drugs or vehicle in a volume of 10 ml/kg. About 30 to 60 min after drug administration, the mice were placed into the chamber and allowed to free play for 10 min. After this habituation period, a novel object (e.g., a toy ball of 3 cm in diameter with spikes) was introduced to the center of the chamber for 5 min. For the entire 15 min that the mouse spent in the chamber, video was recorded and analyzed with AnyMaze software (purchased from Stoelting Co.). The total distance traveled during the entire 15 min and the bouts that the mice touched the novel object during the last 5 min were measured. Statistical significance between two groups was determined by t test. In all statistical measures, the criterion for significance was set at p<0.05.
# [6] = test system: wild type mice; assay: Marble Burying Test; type: in vivo, mouse; conditions: for number of marbles buried: vs vehicle, p<0.001
# Protocol: The Marble Burying Test was conducted as previously described by C. L. Broekkamp et al., Eur. J. Pharmacol. 1986, 126, 223-229. Mice exposed to novel object (marbles) will bury them in the sawdust floor covering. Anxiolytics decrease the number of marbles buried at non-sedative doses. Mice were individually placed in transparent plastic cages (33×21×18 cm) with 5 cm of sawdust on the floor 25 marbles grouped in the center of the cage. The cage was covered with an inverted plastic cage. Each test cage, together with the marbles, was impregnated with mouse odor before-hand by leaving 10 mice in the cage for 15 minutes. These mice then played no further role in the experiment. The number of marbles covered by sawdust (⅔ or more) was counted at the end of a 30-minute test. Twelve mice were studied per group. The test was performed blind (test substances versus vehicle). Clobazam (8 mg/kg i.p.), administered 40 minutes before the test, was used as reference substance. Data with the test substances were analyzed by comparing treated groups with vehicle control using Kruskall-Wallis test followed by Mann-Whitney U tests. Data with the reference substance were analyzed using Mann-Whitney U tests.
# [7] = test system: wild-type mice; assay: Elevated Plus Maze; type: in vivo, mouse; conditions: for time spent in the open arms: vs vehicle
# Description: The Elevated Plus Maze, which detects anxiolytic activity, follows that described by S. L. Handley and S. Mithani Naunyn. Schmied. Arch. Pharmacol. 1984, 327, 1-5. Rodents avoid open spaces (the open arms of an elevated plus-maze). Anxiolytics increase exploratory activity in the open arms, as indicated by increased time spent on the open arms and/or by increased % open-arm entries. The maze consists of 4 arms of equal length and width (14×5 cm) arranged in the form of a plus sign (+). Two opposite arms are enclosed by 12 cm high walls (closed arms). The 2 other arms have no walls (open arms). The maze is raised approximately 60 cm above the floor. A mouse was placed in the center of the plus-maze and left to explore for 5 minutes. The number of entries into the open and closed arms and the time spent on the open arms were recorded. The percentage of open arm entries (open arm entries/total arm entries×100) was calculated. Ten mice were studied per group. The test was performed blind (test substances versus vehicle). Data with the test substances were analyzed by comparing treated groups (7 groups except for the reference substance) with vehicle control using one-way ANOVA followed by post-hoc Dunnett's tests. Data with the reference substance were analyzed using unpaired Student's t tests.
# [8] = Mathur et al. 2008; cited from earlier work
# [9] = single dose subcutaneous, highest dose tested; Iijima et al. 2010; cited from earlier work
# [10] = each test dose, single i.p., vs vehicle
# [11] = 5 mg/kg i.p. once/day for 6 days, tested 30-60 min after last dose
# [12] = 8 mg/kg i.p. 30 minutes before testing
# T2 sequence (Q12879 23-1464, other chains not shown): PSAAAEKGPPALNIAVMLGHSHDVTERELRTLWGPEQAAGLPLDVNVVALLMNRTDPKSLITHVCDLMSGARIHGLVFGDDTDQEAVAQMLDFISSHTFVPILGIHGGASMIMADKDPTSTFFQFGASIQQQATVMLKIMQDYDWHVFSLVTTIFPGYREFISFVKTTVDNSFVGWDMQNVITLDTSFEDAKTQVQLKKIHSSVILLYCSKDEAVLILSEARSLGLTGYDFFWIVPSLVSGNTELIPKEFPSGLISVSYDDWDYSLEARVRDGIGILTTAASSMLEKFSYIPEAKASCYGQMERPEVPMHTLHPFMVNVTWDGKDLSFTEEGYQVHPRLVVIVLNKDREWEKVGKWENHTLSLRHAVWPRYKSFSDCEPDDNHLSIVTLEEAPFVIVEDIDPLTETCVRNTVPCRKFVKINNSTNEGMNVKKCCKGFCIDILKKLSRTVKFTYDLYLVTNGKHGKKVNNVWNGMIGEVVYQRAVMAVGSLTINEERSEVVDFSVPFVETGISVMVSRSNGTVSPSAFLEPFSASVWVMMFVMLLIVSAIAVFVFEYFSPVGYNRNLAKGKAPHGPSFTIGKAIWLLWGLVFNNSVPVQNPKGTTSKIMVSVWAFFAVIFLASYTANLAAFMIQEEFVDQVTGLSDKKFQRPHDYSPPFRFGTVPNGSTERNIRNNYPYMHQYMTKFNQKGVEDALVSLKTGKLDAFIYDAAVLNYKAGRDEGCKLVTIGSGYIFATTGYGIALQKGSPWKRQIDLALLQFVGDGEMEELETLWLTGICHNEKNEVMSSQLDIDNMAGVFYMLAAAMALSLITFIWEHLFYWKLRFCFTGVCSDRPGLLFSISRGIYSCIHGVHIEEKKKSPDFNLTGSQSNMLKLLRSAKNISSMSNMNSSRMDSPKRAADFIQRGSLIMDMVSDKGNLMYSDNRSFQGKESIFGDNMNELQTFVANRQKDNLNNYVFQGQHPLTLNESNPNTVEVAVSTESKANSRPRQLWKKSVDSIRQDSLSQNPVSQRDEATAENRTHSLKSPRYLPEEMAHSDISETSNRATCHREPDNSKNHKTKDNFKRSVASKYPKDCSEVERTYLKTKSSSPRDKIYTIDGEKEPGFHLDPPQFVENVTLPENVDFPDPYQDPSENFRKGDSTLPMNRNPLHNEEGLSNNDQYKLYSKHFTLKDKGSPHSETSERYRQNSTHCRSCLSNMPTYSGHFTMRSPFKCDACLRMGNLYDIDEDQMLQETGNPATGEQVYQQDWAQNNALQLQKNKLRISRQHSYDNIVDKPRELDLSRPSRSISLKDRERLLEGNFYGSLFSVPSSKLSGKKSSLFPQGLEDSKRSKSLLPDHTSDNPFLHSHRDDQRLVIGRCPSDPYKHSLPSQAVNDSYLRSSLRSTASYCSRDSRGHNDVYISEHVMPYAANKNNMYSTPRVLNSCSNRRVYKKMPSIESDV
# T1 sequence (Q13224 27-1484, other chains not shown): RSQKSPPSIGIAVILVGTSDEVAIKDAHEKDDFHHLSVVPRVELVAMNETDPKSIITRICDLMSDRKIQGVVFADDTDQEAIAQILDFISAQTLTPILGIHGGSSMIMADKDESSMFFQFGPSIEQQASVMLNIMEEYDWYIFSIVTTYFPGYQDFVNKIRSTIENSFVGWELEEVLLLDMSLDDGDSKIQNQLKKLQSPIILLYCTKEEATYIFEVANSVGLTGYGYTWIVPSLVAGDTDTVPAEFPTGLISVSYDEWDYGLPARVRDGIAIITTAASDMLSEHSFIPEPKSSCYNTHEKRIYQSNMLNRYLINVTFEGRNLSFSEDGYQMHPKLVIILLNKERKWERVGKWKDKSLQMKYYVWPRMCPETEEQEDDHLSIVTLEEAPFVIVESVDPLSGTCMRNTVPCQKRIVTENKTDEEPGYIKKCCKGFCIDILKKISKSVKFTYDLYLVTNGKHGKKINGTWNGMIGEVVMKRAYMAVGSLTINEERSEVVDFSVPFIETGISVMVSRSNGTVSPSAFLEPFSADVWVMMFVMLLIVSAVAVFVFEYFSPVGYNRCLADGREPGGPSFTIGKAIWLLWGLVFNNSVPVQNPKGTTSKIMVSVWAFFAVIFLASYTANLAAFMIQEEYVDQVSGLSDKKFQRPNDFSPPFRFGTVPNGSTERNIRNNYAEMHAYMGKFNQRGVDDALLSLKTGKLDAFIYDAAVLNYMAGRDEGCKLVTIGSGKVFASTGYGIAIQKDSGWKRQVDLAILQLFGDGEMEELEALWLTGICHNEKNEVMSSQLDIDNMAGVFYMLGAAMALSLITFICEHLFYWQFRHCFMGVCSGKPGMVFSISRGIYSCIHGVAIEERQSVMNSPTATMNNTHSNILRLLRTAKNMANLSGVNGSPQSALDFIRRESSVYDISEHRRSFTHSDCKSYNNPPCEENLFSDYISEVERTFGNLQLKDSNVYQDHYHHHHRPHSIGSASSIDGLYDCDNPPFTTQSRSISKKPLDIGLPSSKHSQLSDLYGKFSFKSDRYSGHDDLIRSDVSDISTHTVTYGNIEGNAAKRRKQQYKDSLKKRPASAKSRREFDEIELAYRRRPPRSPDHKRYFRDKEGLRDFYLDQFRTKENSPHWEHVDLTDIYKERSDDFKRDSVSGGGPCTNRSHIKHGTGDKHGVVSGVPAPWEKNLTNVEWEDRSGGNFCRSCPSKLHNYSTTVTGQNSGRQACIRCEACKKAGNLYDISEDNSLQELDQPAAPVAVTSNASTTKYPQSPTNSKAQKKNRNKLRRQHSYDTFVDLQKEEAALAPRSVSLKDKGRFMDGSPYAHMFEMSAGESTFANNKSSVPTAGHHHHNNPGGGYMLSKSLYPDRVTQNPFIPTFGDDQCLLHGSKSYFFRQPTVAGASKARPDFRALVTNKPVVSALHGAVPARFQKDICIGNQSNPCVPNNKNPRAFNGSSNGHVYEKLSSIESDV
# T3 sequence (Q12879 23-1464, other chains not shown): as the sequence (Q12879 23-1464, other chains not shown) above
structure (smiles),measurement,setting,value
"Cc1ccc(COC(=O)N2CC[C@H](CNc3ncccn3)[C@H](F)C2)cc1 (racemic) [Compound C, (±)-cis-4-methylbenzyl 3-fluoro-4-[(pyrimidin-2-ylamino)methyl]piperidine-1-carboxylate]",novelty phobia (number of touch bouts),[1]; [10],significantly improved
same,"novelty phobia (number of touch bouts), dose dependence",[1],dose-dependently improved novelty phobia
"Cc1ccc(COC(=O)N2CC[C@@H](CNc3ncccn3)[C@@H](F)C2)cc1 [(3R,4S)-4-methylbenzyl 3-fluoro-4-[(pyrimidin-2-ylamino)methyl]piperidine-1-carboxylate]",pIC50,[2],7.74
same,pIC50,[3],< 5.00
"C[C@@H]([C@@H](O)c1ccc(O)cc1)N1CCC(O)(c2ccccc2)CC1 [Compound A, (+)-(1S,2S)-1-(4-hydroxyphenyl)-2-(4-hydroxy-4-phenylpiperidino)-1-propanol, reference compound]",pIC50,[4],≤ 5.00
same,novelty phobia (number of touch bouts),[5]; [11],significantly improved novelty phobia
"FC(F)(F)c1ccc(C(F)(F)CN2CCC(Nc3ncnc4[nH]ncc34)CC2)cc1 [Compound B, N-(1-(2,2-difluoro-2-(4-trifluoromethyl)phenyl-ethyl)piperidin-4-yl)-1H-pyrazolo[3,4-d]pyrimidin-4-amine]",novelty phobia (number of touch bouts),[1]; [10],significantly improved
same,"novelty phobia (number of touch bouts), dose dependence",[1],dose-dependently improved novelty phobia
same,novelty phobia (number of touch bouts),[5]; [11],significantly improved novelty phobia
same,novelty phobia (number of touch bouts),[5]; 1 and 5 mg/kg single i.p.,significantly improved novelty phobia
same,"novelty phobia (number of touch bouts), dose dependence",[5]; single i.p. administration 30-60 min before testing,dose-dependently improved novelty phobia
same,pIC50,[3],< 5.00
"Cc1ccc(COC(=O)N2CC[C@H](CNc3ncccn3)[C@H](F)C2)cc1 [Compound D, (−)-(3S,4R)-cis-4-methylbenzyl 3-fluoro-4-[(pyrimidin-2-ylamino)methyl]-piperidine-1-carboxylate]",number of marbles buried,[6]; 1 mg/kg i.p. 20 minutes before the test,significantly different from that of vehicle
same,"number of marbles buried, dose dependence",[6]; single i.p. dose 20 minutes before 30-minute test session,dose-dependently reduced the number of marbles buried
same,novelty phobia (number of touch bouts),[1]; 1 mg/kg i.p. 20 minutes prior to testing,improved novelty phobia
same,time spent in the open arms,"[7]; 3 and 10 mg/kg i.p. 20 minutes before the test, p<0.01/0.001",significantly different from that of vehicle
same,"time spent in the open arms, dose dependence",[7]; single i.p. dose 20 minutes before the test,maximal efficacy approaching that of the benzodiazepine control compound clobazam; also recorded: dose-dependently increased the amount of time spent
same,pIC50,[2],7.96
same,pIC50,[3],< 5.00
C[C@@H](CN1CCC(Cc2ccccc2)CC1)[C@@H](O)c1ccc(O)cc1 [Ro25-6981],activity in the elevated plus maze test,[8],inactive
same,effect in the marble burying test,[9],modest efficacy
"CN1C(=O)CC(=O)N(c2ccccc2)c2cc(Cl)ccc21 [clobazam, reference compound]",number of marbles buried,[6]; [12],significantly different from that of vehicle
same,time spent in the open arms,[7]; [12],significantly different from that of vehicle

# — patent US20180271869A1, “TREATMENT OF ANXIETY DISORDERS AND AUTISM SPECTRUM DISORDERS” (Rugen Holdings (Cayman) Limited, priority 2014, published 2018)
